Measured values: US20200096496A1, “IODIDE DETECTION IN BLOOD PLASMA SAMPLES” (Faraday Pharmaceuticals, Inc., priority 2017, published 2020)

Experiment: Iodide concentration in plasma of treated human volunteers by ion chromatography with amperometric detection
Type: in vivo
Conditions: plasma samples from human volunteers treated with various dosages of sodium iodide, protein precipitation with acetonitrile
Procedure: Plasma samples were obtained from Bioreclamation IVT in 10 mL aliquots of frozen plasma in lithium heparin. The plasma samples were normal plasma samples obtained from healthy male and female volunteers who were not treated with iodide. The plasma samples were prepared according to the following protocol. • 0.5 mL plasma was diluted 3:1 with pure acetonitrile for protein precipitation before analysis by Amperometric detection. (ex: 0.5 mL […] plus 1.5 mL pure Acetonitrile) • Samples were mixed gently and then centrifuged at max speed (14,000 rpm or 20,817 rcf) for 2 minutes. • Supernatant was carefully removed as to not disturb protein pellet, and transferred to a clean Eppendorf tube. • Supernatants were again centrifuged at max speed for 2 minutes. • Samples were spiked as necessary with NaI to fall between 2.5 and 200 ppb NaI concentrations. • 270 μL or 1 mL volumes of samples were analyzed by Amperometric detection on IC against a standard curve in a diluent matrix.
Plasma samples were obtained from human volunteers treated with various dosages of sodium iodide. The plasma samples were processed and sodium iodide concentrations determined essentially as described in Example 3.

SMILES: [I-].[Na+] [sodium iodide]
- determined serum concentrations of sodium iodide: positively correlated with dosages administered
